Measurements taken from patent US11739098B2 (BRISTOL-MYERS SQUIBB COMPANY, priority 2017, dated 2023).
pIC50: −log10 of the molar value.

Experiments:
Type in all cases: cell-based
human TLR9 = target: T1, human TLR9 (Homo sapiens, UniProt Q9NR96); test: TLR9 inhibition reporter assay (HEK-Blue cells, SEAP reporter, ODN2006 stimulation); settings: HEK-Blue cells overexpressing human TLR9, SEAP reporter, ODN2006 5 nM
T1 construct: host or cells: HEK-Blue cells (HEK293-derived reporter line)
T1 sequence (Q9NR96 26-1032): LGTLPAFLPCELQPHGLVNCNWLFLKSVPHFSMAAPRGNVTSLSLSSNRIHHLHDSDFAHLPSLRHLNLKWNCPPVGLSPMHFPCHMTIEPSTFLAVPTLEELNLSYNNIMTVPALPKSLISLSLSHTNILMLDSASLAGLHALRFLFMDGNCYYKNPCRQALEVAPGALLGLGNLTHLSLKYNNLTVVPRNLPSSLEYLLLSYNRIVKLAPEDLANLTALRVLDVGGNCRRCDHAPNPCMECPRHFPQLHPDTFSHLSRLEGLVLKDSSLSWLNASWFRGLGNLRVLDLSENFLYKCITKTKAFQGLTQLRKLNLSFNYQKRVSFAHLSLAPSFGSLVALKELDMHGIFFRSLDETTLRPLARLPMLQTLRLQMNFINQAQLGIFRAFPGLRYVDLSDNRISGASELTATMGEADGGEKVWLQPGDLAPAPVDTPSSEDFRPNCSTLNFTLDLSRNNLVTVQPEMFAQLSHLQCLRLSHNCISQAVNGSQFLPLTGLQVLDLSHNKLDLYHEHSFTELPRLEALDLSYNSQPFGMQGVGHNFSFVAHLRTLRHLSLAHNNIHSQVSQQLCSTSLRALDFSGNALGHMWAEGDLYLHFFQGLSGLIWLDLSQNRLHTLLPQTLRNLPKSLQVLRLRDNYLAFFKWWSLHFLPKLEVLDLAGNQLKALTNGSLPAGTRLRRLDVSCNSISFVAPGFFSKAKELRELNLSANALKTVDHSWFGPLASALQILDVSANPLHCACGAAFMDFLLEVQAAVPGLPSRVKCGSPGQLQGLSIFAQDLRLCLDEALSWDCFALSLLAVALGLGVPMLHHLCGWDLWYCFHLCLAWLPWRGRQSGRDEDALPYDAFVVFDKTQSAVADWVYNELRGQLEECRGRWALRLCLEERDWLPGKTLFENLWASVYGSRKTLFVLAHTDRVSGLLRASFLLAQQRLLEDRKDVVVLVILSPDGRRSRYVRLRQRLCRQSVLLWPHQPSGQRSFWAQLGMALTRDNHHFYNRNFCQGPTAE
In short: (§1)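 Read-out is SEAP activity in HEK-Blue detection medium after 22 h at 37 °C, converted to percent inhibition against agonist-plus-DMSO and reference-inhibitor controls. Cells saw compound (0.05 nM–50 μM, 30 min, room temperature) before gardiquimod 7.5 μM, R848 15.9 μM or ODN2006 5 nM for TLR7, TLR8 and TLR9, respectively.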

human TLR7 = target: T2, human TLR7 (Homo sapiens, UniProt Q9NYK1); test: TLR7 inhibition reporter assay (HEK-Blue cells, SEAP reporter, gardiquimod stimulation); settings: HEK-Blue cells overexpressing human TLR7, SEAP reporter, gardiquimod 7.5 μM
T2 construct: host or cells: HEK-Blue cells (HEK293-derived reporter line)
T2 sequence (Q9NYK1 27-1049): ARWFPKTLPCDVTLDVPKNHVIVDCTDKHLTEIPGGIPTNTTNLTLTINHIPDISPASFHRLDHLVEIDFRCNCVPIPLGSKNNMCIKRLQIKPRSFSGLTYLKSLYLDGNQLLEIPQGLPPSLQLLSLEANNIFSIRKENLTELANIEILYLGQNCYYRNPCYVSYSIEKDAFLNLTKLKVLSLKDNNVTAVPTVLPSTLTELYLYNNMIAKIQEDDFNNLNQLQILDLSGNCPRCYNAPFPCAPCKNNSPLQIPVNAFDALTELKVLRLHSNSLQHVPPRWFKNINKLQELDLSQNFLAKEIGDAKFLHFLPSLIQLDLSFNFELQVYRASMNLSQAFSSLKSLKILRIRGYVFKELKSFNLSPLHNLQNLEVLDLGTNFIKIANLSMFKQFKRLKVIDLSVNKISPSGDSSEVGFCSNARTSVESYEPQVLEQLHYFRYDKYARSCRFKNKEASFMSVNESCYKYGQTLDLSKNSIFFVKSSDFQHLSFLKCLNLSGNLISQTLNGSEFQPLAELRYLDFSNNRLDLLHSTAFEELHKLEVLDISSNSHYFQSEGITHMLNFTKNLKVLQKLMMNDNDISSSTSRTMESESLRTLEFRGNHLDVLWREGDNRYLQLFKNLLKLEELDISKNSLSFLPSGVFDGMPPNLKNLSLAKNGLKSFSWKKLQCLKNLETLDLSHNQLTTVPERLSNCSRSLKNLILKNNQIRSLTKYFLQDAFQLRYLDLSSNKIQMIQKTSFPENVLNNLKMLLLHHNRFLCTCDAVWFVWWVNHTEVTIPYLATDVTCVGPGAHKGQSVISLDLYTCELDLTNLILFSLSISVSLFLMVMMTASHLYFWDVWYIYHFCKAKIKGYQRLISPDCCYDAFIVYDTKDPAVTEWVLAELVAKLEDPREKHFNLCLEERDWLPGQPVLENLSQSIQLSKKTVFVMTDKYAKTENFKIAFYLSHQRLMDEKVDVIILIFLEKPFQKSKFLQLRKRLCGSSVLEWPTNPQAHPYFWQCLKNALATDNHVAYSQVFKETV
In short: as §1

human TLR8 = target: T3, human TLR8 (Homo sapiens, UniProt Q9NR97); test: TLR8 inhibition reporter assay (HEK-Blue cells, SEAP reporter, R848 stimulation); settings: HEK-Blue cells overexpressing human TLR8, SEAP reporter, R848 15.9 μM
T3 construct: host or cells: HEK-Blue cells (HEK293-derived reporter line)
T3 sequence (Q9NR97 27-1041): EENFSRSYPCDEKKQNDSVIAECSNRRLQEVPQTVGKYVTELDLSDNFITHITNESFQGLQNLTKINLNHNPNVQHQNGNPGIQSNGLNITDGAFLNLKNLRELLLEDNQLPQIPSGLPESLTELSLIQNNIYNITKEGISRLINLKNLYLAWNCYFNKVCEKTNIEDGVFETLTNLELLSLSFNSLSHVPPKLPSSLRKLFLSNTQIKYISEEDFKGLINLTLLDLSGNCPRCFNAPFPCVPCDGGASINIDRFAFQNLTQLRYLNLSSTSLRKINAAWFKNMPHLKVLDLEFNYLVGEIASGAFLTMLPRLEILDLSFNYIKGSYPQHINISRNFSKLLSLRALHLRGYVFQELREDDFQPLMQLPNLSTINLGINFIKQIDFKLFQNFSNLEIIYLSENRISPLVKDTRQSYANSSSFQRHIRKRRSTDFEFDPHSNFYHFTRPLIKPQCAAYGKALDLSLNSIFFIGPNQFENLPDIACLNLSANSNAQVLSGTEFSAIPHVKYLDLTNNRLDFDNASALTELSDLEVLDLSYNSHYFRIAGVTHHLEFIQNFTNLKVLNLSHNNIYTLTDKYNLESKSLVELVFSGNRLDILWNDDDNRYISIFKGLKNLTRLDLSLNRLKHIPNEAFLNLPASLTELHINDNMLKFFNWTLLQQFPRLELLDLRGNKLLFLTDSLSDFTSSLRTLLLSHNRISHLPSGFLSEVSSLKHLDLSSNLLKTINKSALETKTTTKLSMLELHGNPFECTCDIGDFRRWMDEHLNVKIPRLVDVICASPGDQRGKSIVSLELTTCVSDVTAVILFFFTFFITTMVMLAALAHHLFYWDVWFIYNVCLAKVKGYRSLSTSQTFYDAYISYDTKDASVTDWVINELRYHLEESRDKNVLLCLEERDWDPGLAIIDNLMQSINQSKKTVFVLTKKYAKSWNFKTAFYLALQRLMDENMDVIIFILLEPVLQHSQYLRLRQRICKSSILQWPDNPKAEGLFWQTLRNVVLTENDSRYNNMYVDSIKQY
In short: as §1

Structure (SMILES)	pIC50 (human TLR9)	pIC50 (human TLR7)	pIC50 (human TLR8)
Cc1cc(-c2[nH]c3ccc(C4CCN(C(=O)CN(C)C)CC4)cc3c2C(C)C)cn2nncc12 [Example 467, 2-(dimethylamino)-1-(4-(3-isopropyl-2-(4-methyl-[1,2,3]triazolo[1,5-a]pyridin-6-yl)-1H-indol-5-yl)piperidin-1-yl)ethan-1-one]	4.30 to 6.00	6.00 to 7.00	4.30 to 6.00
CC(C)c1c(-c2ccnc3[nH]ncc23)[nH]c2ccc(C3CCN(C(=O)C4CCNCC4)CC3)cc12 [Example 649, (4-(3-isopropyl-2-(1H-pyrazolo[3,4-b]pyridin-4-yl)-1H-indol-5-yl)piperidin-1-yl)(piperidin-4-yl)methanone]	4.30 to 6.00	6.00 to 7.00	6.00 to 7.00
Cc1nnn2ccc(-c3[nH]c4ccc(C5CCN(CC(N)=O)CC5)cc4c3C(C)C)cc12 [Example 317, 2-(4-(3-isopropyl-2-(3-methyl-[1,2,3]triazolo[1,5-a]pyridin-5-yl)-1H-indol-5-yl)piperidin-1-yl)acetamide]	4.30 to 6.00	> 7.00	> 7.00
CCc1c(-c2ccnc3[nH]cc(C(C)C)c23)[nH]c2ccc(C3CCNCC3)cc12 [Example 221, 4-(3-ethyl-5-(piperidin-4-yl)-1H-indol-2-yl)-3-isopropyl-1H-pyrrolo[2,3-b]pyridine]	6.00 to 7.00	6.00 to 7.00	4.30 to 6.00
CC(C)c1c(-c2ccnc3[nH]ncc23)[nH]c2ccc(C3CCNCC3)c(F)c12 [Example 259, 4-(4-fluoro-3-isopropyl-5-(piperidin-4-yl)-1H-indol-2-yl)-1H-pyrazolo[3,4-b]pyridine]	6.00 to 7.00	> 7.00	> 7.00
CNCC(=O)N1CCC(c2ccc3[nH]c(-c4cc(C)nc5ccccc45)c(C(C)C)c3c2)CC1 [Example 534, 1-(4-(3-isopropyl-2-(2-methylquinolin-4-yl)-1H-indol-5-yl)piperidin-1-yl)-2-(methylamino)ethan-1-one]	4.30 to 6.00	> 7.00	> 7.00
CC(C)c1c(-c2ccnc3[nH]ncc23)[nH]c2ccc(C3CCN(CCCN4CCCCC4)CC3)cc12 [Example 848, 4-(3-isopropyl-5-(1-(3-(piperidin-1-yl)propyl)piperidin-4-yl)-1H-indol-2-yl)-1H-pyrazolo[3,4-b]pyridine]	6.00 to 7.00	6.00 to 7.00	6.00 to 7.00
CC(C)c1c(-c2cc(C(F)(F)F)c3nccn3c2)[nH]c2ccc(C3CCN(Cc4cnn(C)c4)CC3)cc12 [Example 933, 6-(3-isopropyl-5-(1-((1-methyl-1H-pyrazol-4-yl)methyl)piperidin-4-yl)-1H-indol-2-yl)-8-(trifluoromethyl)imidazo[1,2-a]pyridine]	6.00 to 7.00	> 7.00	> 7.00
Cc1c(-c2[nH]c3ccc(C4CCN(C(=O)CN(C)C)CC4)cc3c2C(C)C)cn2nnnc2c1C [Example 468, 2-(dimethylamino)-1-(4-(2-(7,8-dimethyltetrazolo[1,5-a]pyridin-6-yl)-3-isopropyl-1H-indol-5-yl)piperidin-1-yl)ethan-1-one]	4.30 to 6.00	> 7.00	> 7.00

Other lines, results leading:

pIC50 (human TLR9)	pIC50 (human TLR7)	pIC50 (human TLR8)	Structure (SMILES)
4.30 to 6.00	> 7.00	> 7.00	Cc1cc(-c2[nH]c3ccc(C4CCNCC4)cc3c2C(C)C)nc2scnc12 [Example 101, 5-(3-isopropyl-5-(piperidin-4-yl)-1H-indol-2-yl)-7-methylthiazolo[5,4-b]pyridine]
4.30 to 6.00	4.30 to 6.00	4.30 to 6.00	CCc1c(-c2ccc3ncc(C#N)n3n2)[nH]c2ccc(C3CCNCC3)cc12 [Example 102, 6-(3-ethyl-5-(piperidin-4-yl)-1H-indol-2-yl)imidazo [1,2-b]pyridazine-3-carbonitrile]
4.30 to 6.00	6.00 to 7.00	6.00 to 7.00	CC(C)c1c(-c2ccn3nccc3n2)[nH]c2ccc(C3CCNCC3)cc12 [Example 193, 5-(3-isopropyl-5-(piperidin-4-yl)-1H-indol-2-yl)pyrazolo[1,5-a]pyrimidine]
4.30 to 6.00	> 7.00	6.00 to 7.00	CC(C)c1c(-c2cc(CO)c3nnnn3c2)[nH]c2ccc(C3CCNCC3)cc12 [Example 71, (6-(3-isopropyl-5-(piperidin-4-yl)-1H-indol-2-yl)tetrazolo[1,5-a]pyridin-8-yl)methanol]
4.30 to 6.00	6.00 to 7.00	4.30 to 6.00	CC(C)c1c(-c2ccnc3[nH]c(=O)[nH]c23)[nH]c2ccc(C3CCNCC3)cc12 [Example 57, 7-(3-isopropyl-5-(piperidin-4-yl)-1H-indol-2-yl)-1,3-dihydro-2H-imidazo[4,5-b]pyridin-2-one]
4.30 to 6.00	4.30 to 6.00	< 5.51	CC(C)c1c(-c2cn3cnnc3c(O)n2)[nH]c2ccc(C3CCNCC3)cc12 [Example 34, 6-(3-isopropyl-5-(piperidin-4-yl)-1H-indol-2-yl)-[1,2,4]triazolo[4,3-a]pyrazin-8-ol]
